Laboratory results published in paper PMC12693701, “Glucosinolate-Derived Metabolites from Barbarea vulgaris (Brassicaceae): Evaluation of Antimicrobial, Antioxidant, and Anti-Inflammatory Potentials” (Molecules, 2025).
Converted amounts (≈) assume the structure as drawn.

Tests used:
[1] = tested on: B. subtilis ATCC 6633; assay: Microdilution MIC/MMC with resazurin; assay type: cell-based, Bacillus subtilis; settings: B. subtilis ATCC 6633, compounds 1–8; for MIC: Bacillus subtilis, ATCC6633, read-out: MIC
Experimental: (§1) The antimicrobial activity was evaluated against 15 microorganisms. This included 11 bacterial strains: four standard strains (Staphylococcus aureus ATCC 25923, Bacillus subtilis ATCC 6633, Bacillus pumilus NCTC 8241, and Escherichia coli ATCC 25922) and six clinical or environmental isolates (Staphylococcus aureus, Escherichia coli, Bacillus cereus, Proteus mirabilis, Salmonella enterica, and Klebsiella pneumoniae). One probiotic strain, Bifidobacterium animalis subsp. lactis was tested. In addition, four fungal strains, Candida albicans ATCC 10231, Trichoderma viride ATCC 13233, Aspergillus flavus ATCC 9170, and Fusarium solani ATCC 11712 were tested. The bacterial strains were kept in glycerol stock at −80 °C and the fungal strains in paraffin oil stock at 4 °C.
(§2) Bacterial and yeast suspensions were prepared using the direct colony method, as previously described by Andrews. The turbidity of the initial suspensions was adjusted to match the 0.5 McFarland standard using a densitometer (Biosan, Riga, Latvia), corresponding to approximately 10^8 colony-forming units (CFU)/mL for bacterial cells and 10^6 CFU/mL for yeast cells. Subsequently, 1:100 dilutions of the initial suspensions were prepared in sterile 0.85% saline. Fungal spore suspensions were obtained by gently harvesting spores from agar slopes containing mature mycelial growth. The collected spore suspensions were then diluted 1:1000 in sterile 0.85% saline prior to use.
(§3) Antimicrobial activity was evaluated by determining the minimum inhibitory concentration (MIC) and minimum microbicidal concentration (MMC) using the microdilution plate method with resazurin as an indicator [28]. In the 96-well plates, 100 μL of Mueller–Hinton broth (Torlak, Belgrade, Serbia) for bacterial testing and Sabouraud broth (Torlak, Belgrade, Serbia) for fungal testing were dispensed into each well. The compounds under investigation were initially dissolved in a 10% dimethyl sulfoxide (DMSO) solution, followed by dilution in sterile distilled water, resulting in a working compound solution containing 1% DMSO. A 100 μL aliquot of the stock solution of the tested compound was added to the first row, and twofold serial dilutions were then carried out using a multichannel pipette. The resulting concentration range was from 5 to 0.039 mg/mL. The inoculated microtiter plates were incubated at 37 °C for 24 h for bacteria, at 28 °C for 48 h for yeasts, and at 28 °C for 72 h for molds.
(§4) Each test also included growth control and sterility control. All tests were conducted in duplicate. MIC was defined as the lowest concentration of tested compounds that prevented resazurin color change from blue to pink. For molds, MIC values of the tested compound were determined as the lowest concentration that inhibited visible mycelia growth. MMC was determined by inoculation of the nutrient agar medium by plating […] of samples from wells, where no indicator color change was recorded. At the end of the incubation period, the lowest concentration with no growth (no colony) was defined as MMC.
(§5) Doxycycline, ampicillin and amphotericin B (- Sigma-Aldrich, St. Louis, MO, USA) and ketoconazole (Hemofarm A.D., Vršac, Serbia) were dissolved in a nutrient liquid medium. Doxycycline is a broad-spectrum antibiotic effective against both aerobic and anaerobic Gram-positive and Gram-negative bacteria. Ampicillin, a beta-lactam antibiotic, primarily targets Gram-positive bacteria but also some Gram-negative strains. Amphotericin B is an antifungal drug often used for serious systemic fungal infections and is one of the effective treatments for fungal infections caused by Aspergillus sp. Ketoconazole is an antifungal agent used to inhibit the growth of Candida species.

[2] = tested on: B. cereus; assay: Microdilution MIC/MMC with resazurin; assay type: cell-based, Bacillus cereus; settings: B. cereus, compounds 1–8; for MIC: Bacillus cereus, read-out: MIC
Experimental: as §1, §2, §3, §4, §5

[3] = tested on: B. pumilus NCTC 8241; assay: Microdilution MIC/MMC with resazurin; assay type: cell-based, Bacillus pumilus; settings: B. pumilus NCTC 8241, compounds 1–8; for MIC: Bacillus pumilus, NCTC8241, read-out: MIC
Experimental: as §1, §2, §3, §4, §5

[4] = tested on: S. aureus ATCC 25923; assay: Microdilution MIC/MMC with resazurin; assay type: cell-based, Staphylococcus aureus; settings: S. aureus ATCC 25923, compounds 1–8; for MIC: Staphylococcus aureus, ATCC25923, read-out: MIC
Experimental: as §1, §2, §3, §4, §5

[5] = tested on: S. aureus; assay: Microdilution MIC/MMC with resazurin; assay type: cell-based, Staphylococcus aureus; settings: S. aureus isolate, compounds 1–8; for MIC: Staphylococcus aureus, read-out: MIC
Experimental: as §1, §2, §3, §4, §5

[6] = tested on: S. enterica; assay: Microdilution MIC/MMC with resazurin; assay type: cell-based, Salmonella enterica; settings: compounds 1–8; for MIC: Salmonella enterica
Experimental: as §1, §2, §3, §4, §5

[7] = tested on: T. viride ATCC 13233; assay: Microdilution MIC/MMC; assay type: cell-based, Trichoderma viride; settings: T. viride ATCC 13233, compounds 1–8; for MIC: Trichoderma viride, ATCC13233, read-out: MIC
Experimental: as §1, §2, §3, §4, §5

[8] = tested on: P. mirabilis; assay: Microdilution MIC/MMC with resazurin; assay type: cell-based, Proteus mirabilis; settings: P. mirabilis, compounds 1–8; for MIC: Proteus mirabilis, read-out: MIC
Experimental: as §1, §2, §3, §4, §5

[9] = tested on: A. flavus ATCC 9170; assay: Microdilution MIC/MMC; assay type: cell-based, Aspergillus flavus; settings: A. flavus ATCC 9170, compounds 1–8; for MIC: Aspergillus flavus, ATCC9170, read-out: MIC
Experimental: as §1, §2, §3, §4, §5

[10] = DPPH radical scavenging assay; settings: mean ± SD
Experimental: The DPPH assay was used to assess the ability of the tested compounds to scavenge reactive radical species. Stock solutions of the investigated compounds were prepared in DMSO and then diluted with methanol to a final volume of 1000 µL. An equal volume of a 50 µM DPPH solution in methanol was then added to the prepared mixture. The final concentrations of the test compounds were 25, 50, and 100 µM. After thorough mixing, the samples were incubated in the dark at room temperature for 20 to 60 min. Methanol was used as a blank, and absorbance was measured at 517 nm after incubation. All measurements were performed in triplicate.

[11] = tested on: E. coli ATCC 25922; assay: Microdilution MIC/MMC with resazurin; assay type: cell-based, Escherichia coli; settings: E. coli ATCC 25922, compounds 1–8; for MIC: Escherichia coli, ATCC25922, read-out: MIC
Experimental: as §1, §2, §3, §4, §5

[12] = tested on: E. coli; assay: Microdilution MIC/MMC with resazurin; assay type: cell-based, Escherichia coli; settings: E. coli isolate, compounds 1–8; for MIC: Escherichia coli, read-out: MIC
Experimental: as §1, §2, §3, §4, §5

| Compound | MMC [1] [mg/mL] | MIC [1] [µg/mL] | MMC [2] [mg/mL] | MIC [2] [µg/mL] | MMC [3] [mg/mL] | MIC [3] [µg/mL] | MMC [4] [mg/mL] | MIC [4] [µg/mL] | MMC [5] [mg/mL] | MIC [5] [µg/mL] | MIC [6] [µg/mL] | MMC [6] [mg/mL] | MMC [7] [mg/mL] | MIC [7] [µg/mL] | MMC [8] [mg/mL] | MIC [8] [µg/mL] | MMC [9] [mg/mL] | MIC [9] [µg/mL] | DPPH Scavenging Ability ([10]; 25 µM, 20 min) [%] | DPPH Scavenging Ability ([10]; 25 µM, 60 min) [%] | other results |
| --- | --- | --- | --- | --- | --- | --- | --- | --- | --- | --- | --- | --- | --- | --- | --- | --- | --- | --- | --- | --- | --- |
| S=C1NC[C@H](c2ccccc2)O1 [Compound 5, (S)-5-phenyl-1,3-oxazolidine-2-thione] | >5 | > 5000 | >5 | > 5000 | 5 | 2500 (≈ 13.9 mM) | >5 | 5000 (≈ 27.9 mM) | >5 | > 5000 | 5000 (≈ 27.9 mM) | >5 | 5 | 5000 (≈ 27.9 mM) | 5 | 5000 (≈ 27.9 mM) | >5 | > 5000 | 7.0 ± 0.9 | 8.4 ± 0.5 | DPPH Scavenging Ability ([10]; 50 µM, 20 min): 14.8 ± 0.7%; DPPH Scavenging Ability ([10]; 50 µM, 60 min): 16.4 ± 0.4%; DPPH Scavenging Ability ([10]; 100 µM, 20 min): 21.6 ± 1.2%; DPPH Scavenging Ability ([10]; 100 µM, 60 min): 22.4 ± 0.7%; MMC [11]: 5 mg/mL; MIC [11]: 5000 µg/mL (≈ 27.9 mM); MMC [12]: 5 mg/mL; MIC [12]: 5000 µg/mL (≈ 27.9 mM) |
| CSC(=S)NCCc1ccccc1 [Compound 1, Methyl phenethylcarbamodithioate] | >5 | 2500 (≈ 11.8 mM) | 5 | 5000 (≈ 23.7 mM) | 2.5 | 1250 (≈ 5.91 mM) | 5 | 5000 (≈ 23.7 mM) | 5 | 5000 (≈ 23.7 mM) | 5000 (≈ 23.7 mM) | 5 | 1.25 | 625 (≈ 2.96 mM) | 5 | 5000 (≈ 23.7 mM) | 2.5 | 1250 (≈ 5.91 mM) | 1.6 ± 1.2 | 1.8 ± 1.5 | DPPH Scavenging Ability ([10]; 50 µM, 20 min): 2.5 ± 1.1%; DPPH Scavenging Ability ([10]; 50 µM, 60 min): 2.4 ± 1.4%; DPPH Scavenging Ability ([10]; 100 µM, 20 min): 2.6 ± 1.2%; DPPH Scavenging Ability ([10]; 100 µM, 60 min): 2.9 ± 1.7%; MMC [11]: 1.25 mg/mL; MIC [11]: 1250 µg/mL (≈ 5.91 mM); MMC [12]: 5 mg/mL; MIC [12]: 2500 µg/mL (≈ 11.8 mM) |
| S=C1NCC(c2ccccc2)O1 (racemic) [Compound 4, rac-5-Phenyl-1,3-oxazolidine-2-thione] | 5 | 2500 (≈ 13.9 mM) | 5 | 5000 (≈ 27.9 mM) | 2.5 | 1250 (≈ 6.97 mM) | 2.5 | 1250 (≈ 6.97 mM) | 1.25 | 1250 (≈ 6.97 mM) | 2500 (≈ 13.9 mM) | 5 | 2.5 | 2500 (≈ 13.9 mM) | 5 | 2500 (≈ 13.9 mM) | >5 | > 5000 | 1.2 ± 0.7 | 1.3 ± 0.5 | DPPH Scavenging Ability ([10]; 50 µM, 20 min): 1.7 ± 0.8%; DPPH Scavenging Ability ([10]; 50 µM, 60 min): 2.0 ± 0.9%; DPPH Scavenging Ability ([10]; 100 µM, 20 min): 3.8 ± 1.2%; DPPH Scavenging Ability ([10]; 100 µM, 60 min): 3.5 ± 1.7%; MMC [11]: 5 mg/mL; MIC [11]: 2500 µg/mL (≈ 13.9 mM); MMC [12]: 5 mg/mL; MIC [12]: 2500 µg/mL (≈ 13.9 mM) |
